The target in assay [1] is GST-tagged KRAS-G12D (2-169) (Homo sapiens, UniProt P01116, G12D). In words: Nucleotide exchange assay (NEA), SOS-mediated, HTRF, KRAS G12D. Format: biochemical. Conditions: IC50 extracted at 30 min, 20 nM SOScat. In a few lines: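 SOS1cat-driven loading of fluorescent GTP-DY-647P1 (150 nM) onto GST-KRAS-G12D (2-169, 0.25 nM) read by time-resolved FRET; SOScat 20 nM, compound preincubated with KRAS 1 h at RT. Signal blanked to no-SOS reactions, normalized to DMSO; IC50 fitted from the 30-min read.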
A general note: In TR-FRET formats the signal depends on donor and acceptor labels being close together.

Assay [2] relates to phospho-ERK in GP2D (KRAS-G12D) cells. In words: pERK In Cell Western (ICW) assay (Method B), GP2D. Format: cell-based. Conditions: GP2d, 3 h, Table 4. Put shortly:
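Per well, infrared pERK immunofluorescence was divided by DRAQ5 nuclear signal following 3 h treatment with a 9-point, ½-log compound series; seeding was 5,000 (AGS) or 10,000 (GP2D, SW620) cells per well. Percent-of-blank data were fitted to a four-parameter model for IC50.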

The mark [3] stands for this setting: Table 2, read-out: NEA-G12D (uM) IC50.
The mark [4] stands for this setting: Table 4, read-out: NEA G12D IC50.

Read-outs that look alike come from different tables or passages of the source.

Chain of GST-tagged KRAS-G12D (2-169) (P01116 2-169 isoform P01116-2 G12D): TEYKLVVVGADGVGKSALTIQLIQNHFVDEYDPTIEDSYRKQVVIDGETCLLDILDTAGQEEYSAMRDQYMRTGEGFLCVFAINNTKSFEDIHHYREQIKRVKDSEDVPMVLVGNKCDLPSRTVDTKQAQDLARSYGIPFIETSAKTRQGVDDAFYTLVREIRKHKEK

The IC50 is the concentration needed to halve the response being measured. As to `N#Cc1c(N)sc2c1C1(CC2)CN(c2nc(OCC34CCCN3CC(F)C4)nc(N3CC4CCC(C3)N4)n2)C1` [Compound 1, 2-amino-1′-[4-(3,8-diazabicyclo[3.2.1]octan-3-yl)-6-[[(2R,8S)-2-fluoro-1,2,3,5,6,7-hexahydropyrrolizin-8-yl]methoxy]-1,3,5-triazin-2-yl]spiro[5,6-dihydrocyclopenta[b]thiophene-4,3′-azetidine]-3-carbonitrile], the IC50 in assay [1] (setting [3]) was under 0.01 µM; in assay [1] (setting [4]), under 0.01 µM; in assay [2] it was 10 to 100 nM.

On to `N#Cc1c(N)sc2c1C1(CC2)CN(c2nc(OCC3(CN4CCOCC4)CC3)nc(N3C[C@H]4CC[C@@H](C3)N4)n2)C1` [Compound 2, 2-amino-1′-[4-[[1-(morpholinomethyl)cyclopropyl]methoxy]-6-[(1R,5S)-3,8-diazabicyclo[3.2.1]octan-3-yl]-1,3,5-triazin-2-yl]spiro[5,6-dihydrocyclopenta[b]thiophene-4,3′-azetidine]-3-carbonitrile], for which the IC50 is under 0.01 µM in assay [1] (setting [3]), under 0.01 µM in assay [1] (setting [4]) and 10 to 100 nM in assay [2].

As for `N#Cc1c(N)sc2c1C1(CCC2)CN(c2nc(OCC3(CN4CCOCC4)CC3)nc(N3C[C@H]4CC[C@@H](C3)N4)n2)C1` [Compound 3, 2-amino-1′-[4-[(1R,5S)-3,8-diazabicyclo[3.2.1]octan-3-yl]-6-[[1-(morpholinomethyl)cyclopropyl]methoxy]-1,3,5-triazin-2-yl]spiro[6,7-dihydro-5H-benzothiophene-4,3′-azetidine]-3-carbonitrile], the values for the IC50 in assay [1] (setting [3]), in assay [1] (setting [4]) and in assay [2] were under 0.01 µM, under 0.01 µM and 10 to 100 nM, respectively.

As to `N#Cc1c(N)sc2c1C1(CC2)CN(c2nc(OCC3(CN4CCOCC4)CC3)nc(N3CCCC4(C3)NC(=O)NC4=O)n2)C1` (stereo not drawn) [Compound 7, 2-amino-1′-[4-(2,4-dioxo-1,3,9-triazaspiro[4.5]decan-9-yl)-6-[[1-(morpholinomethyl)cyclopropyl]methoxy]-1,3,5-triazin-2-yl]spiro[5,6-dihydrocyclopenta[b]thiophene-4,3′-azetidine]-3-carbonitrile], the IC50 in assay [1] (setting [3]) was under 0.01 µM; in assay [1] (setting [4]) it was under 0.01 µM; in assay [2] it was 1000 to 20000 nM.

In the case of `C[C@@]1(O)CCCN(c2nc(OC[C@@]34CCCN3C[C@H](F)C4)nc(N3CC4(CCc5sc(N)c(C#N)c54)C3)n2)C1` [Compound 10, 2-amino-1′-[4-[[(2R,8S)-2-fluoro-1,2,3,5,6,7-hexahydropyrrolizin-8-yl]methoxy]-6-[(3R)-3-hydroxy-3-methyl-1-piperidyl]-1,3,5-triazin-2-yl]spiro[5,6-dihydrocyclopenta[b]thiophene-4,3′-azetidine]-3-carbonitrile], the values for the IC50 in assay [1] (setting [3]), in assay [1] (setting [4]) and in assay [2] were under 0.01 µM, under 0.01 µM and 10 to 100 nM, respectively.

In the case of `N#Cc1c(N)sc2c1C1(CC2)CN(c2nc(OC[C@@]34CCCN3C[C@H](F)C4)nc(N3CCCC(C#N)C3)n2)C1` (stereo partly drawn) [Compound 13, 2-amino-1′-[4-(3-cyano-1-piperidyl)-6-[[(2R,8S)-2-fluoro-1,2,3,5,6,7-hexahydropyrrolizin-8-yl]methoxy]-1,3,5-triazin-2-yl]spiro[5,6-dihydrocyclopenta[b]thiophene-4,3′-azetidine]-3-carbonitrile], the IC50 in assay [1] (setting [3]) fell in the range of 0.01 to 0.1 µM; in assay [1] (setting [4]) it was 0.01 to 0.1 µM; in assay [2], 100 to 1000 nM.

These data come from patent US12421254B2, “KRAS modulators and uses thereof” (Quanta Therapeutics, Inc., priority 2023, dated 2025).
